Measured values reported in patent US6887889B2 (Pharmacopeia Drug Discovery, Inc., priority 2001, dated 2005).
pKi: −log10 of the molar value.

Target: T1, hMCHR (Homo sapiens, UniProt Q99705)
T1 construct: host or cells: CHO (Chinese hamster ovary) cells, membranes
Assay: MCH Assay PCOP Protocol: [125I]-MCH binding to hMCHR-CHO membranes, WGA-SPA beads
Conditions: hMCHR-CHO overexpressing membranes, 0.5 nM [125I]-MCH, 2 hours incubation
Description: A reaction mixture of 10 μg hMCHR-CHO overexpressing membranes (from Receptor Biology, Inc., Beltville, Md., or internally produced) and 100 μg/well WGA-SPA beads (from Amersham Pharmacia Biotech, Inc., Piscataway, N.J.)/100 μL was prepared in MCHR assay buffer (25 mM HEPES, pH 7.4, 10 mM NaCl, 10 mM MgCl2, 5 mM MnCl2, 0.1%BSA). […] The assay plates were shaken for 5 minutes on a plate shaker, then incubated for 2 hours before cpm/well were determined in a Microbeta Trilux counter (from Perkin Elmer Wallac, Inc., Gaithersburg, Md.).

T1 sequence (Q99705 whole entry): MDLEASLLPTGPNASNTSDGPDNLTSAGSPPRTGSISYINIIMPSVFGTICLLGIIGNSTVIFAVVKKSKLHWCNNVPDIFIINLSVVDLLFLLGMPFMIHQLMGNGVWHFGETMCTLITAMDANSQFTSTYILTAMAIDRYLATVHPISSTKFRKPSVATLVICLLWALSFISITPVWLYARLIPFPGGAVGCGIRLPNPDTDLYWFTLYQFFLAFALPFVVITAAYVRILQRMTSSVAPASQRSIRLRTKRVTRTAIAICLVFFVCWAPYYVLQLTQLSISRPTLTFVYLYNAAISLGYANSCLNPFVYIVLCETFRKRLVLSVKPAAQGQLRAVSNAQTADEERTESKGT

pKi	Compound
5.26 to 7.00	O=C(Nc1cc(Cl)cc(Cl)c1)N1CCC(CNCC2CC2)(c2ccc(-c3ccc4c(c3)OCO4)cc2)CC1 [Example 125]
5.26 to 7.00	O=C(Nc1cc(Cl)cc(Cl)c1)N1CCC(CN(CC2CC2)CC2CC2)(c2ccc(-c3cccc(Cl)c3)cc2)CC1 [Example 126]
5.26 to 7.00	O=C(Nc1cc(Cl)cc(Cl)c1)N1CCC(CNCC2CC2)(c2ccc(-c3cccc(Cl)c3)cc2)CC1 [Example 128]
5.26 to 7.00	N#Cc1cccc(-c2ccc(C3(CN(CC4CC4)CC4CC4)CCN(C(=O)Nc4cc(Cl)cc(Cl)c4)CC3)cc2)c1 [Example 130]
7.00 to 7.96	N#Cc1cccc(-c2ccc(C3(CNCC4CC4)CCN(C(=O)Nc4cc(Cl)cc(Cl)c4)CC3)cc2)c1 [Example 131]
5.26 to 7.00	O=C(Nc1cc(Cl)cc(Cl)c1)N1CCC(CN(CC2CC2)CC2CC2)(c2ccc(-c3ccc4c(c3)OCO4)cc2)CC1 [Example 132]
5.26 to 7.00	CCCN(CCC)CC1(c2ccc(-c3cccc(C#N)c3)cc2)CCN(C(=O)Nc2cc(Cl)cc(Cl)c2)CC1 [Example 133]
7.00 to 7.96	CCCNCC1(c2ccc(-c3cccc(C#N)c3)cc2)CCN(C(=O)Nc2cc(Cl)cc(Cl)c2)CC1 [Example 134]

Compound	pKi
O=C(NCC1(c2ccc(-c3cccc(Cl)c3)cc2)CCN(C2CCCCC2)CC1)Nc1cc(Cl)cc(Cl)c1 [Example 120]	8.00 to 9.70
CCN1CCC(CNC(=O)Nc2cc(Cl)cc(Cl)c2)(c2ccc(-c3cccc(Cl)c3)cc2)CC1 [Example 121]	7.00 to 7.96
CC(=O)Nc1cccc(-c2ccc(C3(CNC(=O)Nc4cc(Cl)cc(Cl)c4)CCN(C4CCCCC4)CC3)cc2)c1 [Example 122]	8.00 to 9.70
CCN1CCC(CNC(=O)Nc2cc(Cl)cc(Cl)c2)(c2ccc(-c3cccc(OC(F)(F)F)c3)cc2)CC1 [Example 123]	7.00 to 7.96
COCCN1CCC(CNCc2cc(Cl)cc(Cl)c2)(c2ccc(-c3cccc(C#N)c3)cc2)CC1 [Example 127]	5.26 to 7.00
COCCN1CCC(CNCc2cc(Cl)cc(Cl)c2)(c2ccc(-c3cccc(Cl)c3)cc2)CC1 [Example 129]	5.26 to 7.00
COCCN1CCC(CNCc2cc(Cl)cc(Cl)c2)(c2ccc(-c3cccc(NC(C)=O)c3)cc2)CC1 [Example 135]	5.26 to 7.00
